Assay results published in article PMC7822874, “Chemoprotective antimalarials identified through quantitative high-throughput screening of Plasmodium blood and liver stage parasites” (Scientific Reports, 2021).
Like-named read-outs stand apart in the source and are kept apart here.

How the values were obtained:
[1] = test system: HepG2-A16-CD81EGFP cells; conditions: for HepG2 1uM growth rep1 / HepG2 1uM growth rep2: HepG2, 1 µM compound treatment (10 mM stocks); for HepG2 1uM growth rep1 / HepG2 3uM growth rep1: replicate 1, normalized; for HepG2 1uM growth rep2 / HepG2 3uM growth rep2: replicate 2, normalized; for HepG2 3uM growth rep1 / HepG2 3uM growth rep2: HepG2, 3 µM compound treatment (10 mM stocks)
[2] = test system: P. berghei-ANKA-GFP-LucCON liver stage parasites in HepG2-A16-CD81EGFP cells; test: P. berghei liver stage Pb-Luc assay, Method 1 (UCSD, 1536-well); type: cell-based, Plasmodium berghei; conditions: Plasmodium berghei, 48 h
[3] = test system: Plasmodium falciparum Dd2 asexual blood stage parasites; test: microbe, parasite or virus in culture; set-up: species or system Plasmodium falciparum Dd2 in human erythrocytes; single determination (one 11-point concentration-response curve); conditions: Plasmodium falciparum, DD2, Erythrocyte, 72 h; read-out: AC50
[4] = in vitro; conditions: human, HepG2-A16-CD81EGFP cells, uninfected
[5] = P. berghei liver stage, 1 µM compound treatment (10 mM stocks), replicate 1, normalized, average of 2 wells on a 1536 well plate, read-out: PbLuc 1uM growth rep1
[6] = P. berghei liver stage, 1 µM compound treatment (10 mM stocks), replicate 2, normalized, average of 2 wells on a 1536 well plate, read-out: PbLuc 1uM growth rep2
[7] = P. berghei liver stage, 3 µM compound treatment (10 mM stocks), replicate 1, normalized, average of 2 wells on a 1536 well plate, read-out: PbLuc 3uM growth rep1
[8] = P. berghei liver stage, 3 µM compound treatment (10 mM stocks), replicate 2, normalized, average of 2 wells on a 1536 well plate, read-out: PbLuc 3uM growth rep2
[9] = nominal 1 uM (10 mM stock), […] for 15 mM, 1.2 uM for 12 mM, 2 uM for 20 mM stock, average of 2 wells, 1536-well plate, repeat 1, read-out: Pb-Luc signal, 1 uM, repeat 1
[10] = nominal 1 uM (10 mM stock), […] for 15 mM, 1.2 uM for 12 mM, 2 uM for 20 mM stock, average of 2 wells, 1536-well plate, repeat 2, read-out: Pb-Luc signal, 1 uM, repeat 2
[11] = nominal 1 uM (10 mM stock), […] for 15 mM, 1.2 uM for 12 mM, 2 uM for 20 mM stock, average of 2 wells, 1536-well plate, repeat 3, read-out: Pb-Luc signal, 1 uM, repeat 3
[12] = nominal 3 uM (10 mM stock), 4.5 uM for 15 mM, 3.6 uM for 12 mM, 6 uM for 20 mM stock, average of 2 wells, 1536-well plate, repeat 1, read-out: Pb-Luc signal, 3 uM, repeat 1
[13] = nominal 3 uM (10 mM stock), 4.5 uM for 15 mM, 3.6 uM for 12 mM, 6 uM for 20 mM stock, average of 2 wells, 1536-well plate, repeat 2, read-out: Pb-Luc signal, 3 uM, repeat 2
[14] = nominal 3 uM (10 mM stock), 4.5 uM for 15 mM, 3.6 uM for 12 mM, 6 uM for 20 mM stock, average of 2 wells, 1536-well plate, repeat 3, read-out: Pb-Luc signal, 3 uM, repeat 3
[15] = nominal 1 uM (10 mM stock), […] for 15 mM, 1.2 uM for 12 mM, 2 uM for 20 mM stock, average of 2 wells, repeat 2
[16] = nominal 3 uM (10 mM stock), 4.5 uM for 15 mM, 3.6 uM for 12 mM, 6 uM for 20 mM stock, average of 2 wells, repeat 2

| Structure (SMILES) | HepG2 1uM growth rep1 ([1]; average of 2 wells) [%] | HepG2 1uM growth rep2 ([1]; average of 2 wells) [%] | HepG2 3uM growth rep1 ([1]; average of 2 wells) [%] | HepG2 3uM growth rep2 ([1]; average of 2 wells) [%] | activity at 1 µM [2, 5] [%] | activity at 1 µM [2, 6] [%] | activity at 3 µM [2, 7] [%] | activity at 3 µM [2, 8] [%] | AC50 [3] [µM] | activity at 1 µM [2, 9] [%] | activity at 1 µM [2, 10] [%] | activity at 1 µM [2, 11] [%] | activity at 3 µM [2, 12] [%] | activity at 3 µM [2, 13] [%] | activity at 3 µM [2, 14] [%] | viability at 48 h, 1 µM [4] [%] | viability at 48 h, 3 µM [4] [%] | HepG2 viability signal, 1 uM, repeat 2 [1, 15] [%] | HepG2 viability signal, 3 uM, repeat 2 [1, 16] [%] | also measured |
| --- | --- | --- | --- | --- | --- | --- | --- | --- | --- | --- | --- | --- | --- | --- | --- | --- | --- | --- | --- | --- |
| COc1ccc2nc(N3CCN(C(=O)c4ccc([N+](=O)[O-])o4)CC3)sc2c1 [MLS001234236-01] | 91 | 90 | 89 | 89 | 100 | 81 | 91 | 103 | 4.73 | – | – | – | – | – | – | – | – | – | – | – |
| COc1cccc2sc(N3CCN(C(=O)c4ccc([N+](=O)[O-])o4)CC3)nc12 [MLS001234267-01] | 103 | 96 | 94 | 93 | 111 | 94 | 69 | 79 | 4.73 | – | – | – | – | – | – | – | – | – | – | – |
| Cc1ccc(C)c2sc(N3CCN(C(=O)c4ccc([N+](=O)[O-])o4)CC3)nc12 [MLS001234268-01] | 104 | 96 | 90 | 99 | 97 | 91 | 57 | 53 | 4.73 | – | – | – | – | – | – | – | – | – | – | – |
| COc1cc2ccccc2cc1C(=O)N1CCCC(C(F)(F)F)C1 (stereo not shown) [MLS002180647-01] | 105 | 90 | 83 | 89 | 90 | 108 | 85 | 115 | 5.31 | – | – | – | – | – | – | – | – | – | – | – |
| COc1ccc([C@@]2(C(C)C)ON(c3ccccc3C(F)(F)F)C2=O)cc1 [MLS002206606-01] | 102 | 93 | 83 | 85 | 98 | 100 | 88 | 122 | 4.22 | – | – | – | – | – | – | – | – | – | – | – |
| CCn1cnc2c(Nc3cc(F)cc(F)c3)nc(C#N)nc21 [MLS002471782-01] | 88 | 82 | 83 | 89 | 155 | 128 | 149 | 187 | 2.37 | – | – | – | – | – | – | – | – | – | – | – |
| CCC(=O)N1CCc2cc(Br)cc([S+](=O)([O-])N3CCCC(C(=O)Nc4ccc(OC)c(Cl)c4)C3)c21 (stereo not shown) [NCGC00106201-01] | – | – | – | – | – | – | – | – | – | 76.1 | 86.6 | 75.8 | 53.5 | 100 | 60 | 90.7 | 82.3 | – | – | HepG2 viability signal, 1 uM, repeat 2 [1]: 91.30%; HepG2 viability signal, 3 uM, repeat 2 [1]: 86.54% |
| COc1ccc(C2Sc3ccccc3N=C3C2=C(O)c2ccccc23)c(OC)c1OC (stereo not shown) [NCGC00108825-01] | – | – | – | – | – | – | – | – | 0.75 | 80.6 | 95.6 | 53.5 | 34.1 | 70.7 | 74.5 | – | – | 77.27 | 66.08 | HepG2 viability signal, 1 uM, repeat 1 ([1]; nominal 1 uM (10 mM stock), […] for 15 mM, 1.2 uM for 12 mM, 2 uM for 20 mM stock, average of 2 wells, repeat 1): 40.50%; HepG2 viability signal, 3 uM, repeat 1 ([1]; nominal 3 uM (10 mM stock), 4.5 uM for 15 mM, 3.6 uM for 12 mM, 6 uM for 20 mM stock, average of 2 wells, repeat 1): 21.41% |
| CCN(c1ccccc1)[S+](=O)([O-])c1ccc(NC(=O)c2cc(=O)c3cc(C)ccc3o2)cc1 [NCGC00115963-01] | – | – | – | – | – | – | – | – | – | – | – | – | – | – | – | – | – | – | – | HepG2 viability, fourth HepG2 column [1]: 95.01%; HepG2 viability, second HepG2 column [1]: 97.84%; HepG2 viability, third HepG2 column [1]: 94.20%; viability at 48 h [4]: 97.5% |
| COc1ccc(CN2CCCC3(C2)C(NC2CCCCC2)=NC(=O)N3c2cc(F)cc(F)c2)cc1 (stereo not shown) [NCGC00373972-01] | – | – | – | – | – | – | – | – | – | 89.2 | 98.6 | 137 | 120 | 103 | 87.7 | 107 | 105 | 102.91 | 99.86 | – |
| O=C(O)c1ccc(-c2nc3cnccc3[nH]2)cc1 [NCGC00375713-01] | – | – | – | – | – | – | – | – | – | 93.2 | 89.1 | 137 | 91.8 | 93.1 | 98.5 | 105 | 104 | 104.68 | 103.76 | – |
| O=C1NCc2ccccc2CC12CCCN(Cc1ccccc1)C2 (stereo not shown) [NCGC00377595-01] | – | – | – | – | – | – | – | – | – | 90.7 | 117 | 140 | 93.9 | 108 | 117 | 104 | 104 | 103.34 | 104.13 | – |
| C[C@H]1[C@@H]2[C@H]3OC(=O)[C@@H](C)[C@@H]3CC[C@@]2(C)CC[C@@H]1NC(=O)CC(C)(C)C [NCGC00392703-01] | – | – | – | – | – | – | – | – | – | 105 | 129 | 103 | 126 | 109 | 99.6 | 95.8 | 99 | 102.40 | 102.42 | – |
| COc1ccc(OC)c(NC(=O)c2ccc3c(c2)N([S+](=O)([O-])c2ccccc2)CC3)c1 [NCGC00430430-01] | – | – | – | – | – | – | – | – | – | 111 | 108 | 91.3 | 102 | 79.3 | 99.8 | 112 | 109 | – | – | HepG2 viability signal, 1 uM, repeat 2 [1]: 105.03%; HepG2 viability signal, 3 uM, repeat 2 [1]: 97.67% |
| COc1ccc(Cl)cc1[S+](=O)([O-])N1CCC2(CCCNC2)C1 (stereo not shown) [NCGC00431241-01] | – | – | – | – | – | – | – | – | – | 96.7 | 98.8 | 61.1 | 98.4 | 74.5 | 79.2 | 112 | 108 | 104.68 | 95.82 | – |
| CCOC(=O)C1(Cc2ccccc2C(F)(F)F)CCNCC1 [NCGC00433719-01] | – | – | – | – | – | – | – | – | – | 99.2 | 89.8 | 165 | 76.2 | 96.6 | 91.6 | 108 | 105 | 106.17 | 103.00 | – |
| COc1cccc(CN2CCC(Oc3ccc(-c4noc(C5CC5)n4)cc3)C2)c1 (stereo not shown) [NCGC00440915-01] | – | – | – | – | – | – | – | – | – | 92.7 | 110 | 96 | 64.2 | 65.8 | 35.3 | 102 | 96.6 | 97.97 | 94.86 | – |
| Cc1ccc([S+](=O)([O-])N2CCC(OC3CCN(Cc4ccccc4)CC3)CC2)c(C)c1 [NCGC00444944-01] | – | – | – | – | – | – | – | – | – | 76.1 | 74 | 76.6 | 78.2 | 61.2 | 56.1 | 111 | 107 | 105.13 | 100.76 | – |
